We go through 1 molecule from publication PMC5400099, “5-Hydroxyethyl-3-tetradecanoyltetramic acid represents a novel treatment for intravascular catheter infections due to Staphylococcus aureus” (Journal of Antimicrobial Chemotherapy, 2016).

Series [1] has as its system Primary human umbilical vein endothelial cells (HUVECs). Put plainly: MTT cell viability assay, HUVEC. The class given is cell-based. The settings on record: HUVECs. As for the experimental part: (§1) Human keratinocyte (HaCaT) cells were cultured in DMEM supplemented with 10% (v/v) FBS. Primary human umbilical vein endothelial cells (HUVECs) were cultured in EGM™-2 Bulletkit (Lonza) medium. HaCaT and HUVECs were harvested using TrypLE^TM Express (Gibco). Cells were seeded in microtitre plates at 3 × 10^5 cells/mL and incubated for 24 h at 37 °C with an antimicrobial compound ([…]) or Triton X100 at 1% (v/v). After removing the medium, cells were incubated with 500 mg/L MTT (Sigma-Aldrich) for 4 h. The crystals formed were solubilized with DMSO. Absorbance was recorded at 560 nm and the CC50 was determined.

Series [2] in a line: MTT cell viability assay, HUVEC. The settings on record: human, primary HUVECs (umbilical vein endothelial cells); HUVEC, MTT, 24 h. It is filed as cell-based, human. As for the experimental part: as §1
(In general: Tetrazolium dyes change colour on reduction, which living cells bring about.)

Series [3] relates to MRSA (USA300 JE2 and BH1CC) and MSSA (SH1000 and BH48) strains. Put plainly: MIC by broth microdilution, MRSA and MSSA strains. The settings on record: MRSA and MSSA strains investigated. The class given is cell-based, Staphylococcus aureus. As for the experimental part:
(§2) Community-acquired MRSA (CA-MRSA) strain USA300, its isogenic agr mutant,[17] the hospital-acquired MRSA (HA-MRSA) strain BH1CC,[18] the HA-MSSA strain BH48[19] and the MSSA strain SH1000[20] were cultured in Mueller–Hinton broth for susceptibility testing or in RPMI-1640 (Gibco) for biofilm formation. For the rat jugular vein catheter infection model, the S. aureus strain USA300 (LAC) lux[21] was used.
(§3) 5HE-C14-TMA and C14-TOA were synthesized as described previously[9] and C14-TTA as described in the Supplementary data available at JAC Online. Stock solutions of the compounds in DMSO at 10–50 mM were further diluted into tissue culture media or sodium chloride for the in vivo experiments. A DMSO solvent control was used in all in vitro experiments. The following antibiotics were used: vancomycin (Vancocin; Flynn Pharma Ltd., Republic of Ireland), daptomycin (Cubicin; Novartis, UK), gentamicin (Hospira, UK) and tigecycline (Tygacil; Pfizer Inc.). MICs were determined by broth microdilution in Mueller–Hinton broth, as recommended by the CLSI.
Background: Dilution methods test growth across graded concentrations, often in twofold steps.

In series [4] the test system is S. aureus strain BH1CC. Put plainly: MIC by broth microdilution (CLSI), strain BH1CC. The class given is cell-based. The settings on record: Staphylococcus aureus; BH1CC (MRSA), Mueller–Hinton broth. The protocol:
as §2, §3

In series [5] the test system is S. aureus USA300 LAC. In words: Bactericidal activity (time-kill, viable counts). The class given is cell-based, Staphylococcus aureus. The settings on record: 8 × MIC. As for the experimental part:
S. aureus USA300 LAC was grown overnight in LB medium, diluted 250-fold and grown to an OD600 0.5. Cells were diluted to 1 × 10^6 per mL in challenge medium (LB plus 5HE-C14-TMA, C14-TOA or C14-TTA at 8 × MIC). Samples were removed and viable counts determined at 30 min intervals for the first hour followed by hourly sampling. The CLSI defines a compound as bactericidal if it reduces the starting inoculum colony count by at least 99.9% (3-logs).

In series [6] the test system is S. aureus strain SH1000. In words: MIC by broth microdilution (CLSI), strain SH1000. It is filed as cell-based. The settings on record: Staphylococcus aureus; SH1000 (MSSA), Mueller–Hinton broth. As for the experimental part:
as §2, §3

Series [7] relates to S. aureus. The settings on record: cited from earlier work.
For series [8], the system named is Human keratinocyte (HaCaT) cells. In words: MTT cell viability assay, HaCaT. The class given is cell-based. The settings on record: HaCaT cells. The protocol:
as §1

Series [9] can be described thus: MTT cell viability assay, HaCaT. It is filed as cell-based, Human. The settings on record: human, HaCaT keratinocyte cells; HaCaT, MTT, 24 h. The protocol: as §1
In series [10] the test system is S. aureus USA300 and SH1000 biofilms. Put plainly: Biofilm viability by live/dead imaging. It is filed as cell-based, Staphylococcus aureus. The settings on record: 128 mg/L, 24 h, both strains (USA300 MRSA and SH1000 MSSA), live/dead staining. As for the experimental part:
Biofilms were formed as previously described to mimic in vivo conditions that promote formation of coagulase-mediated biofilms.[16] Briefly, microtitre plates or glass-bottom culture dishes (MaTek Co., USA) were coated with either 20% (v/v) or 100% (v/v) human plasma, respectively, and inoculated with S. aureus at an OD600 ∼0.2. After 1 h, non-adherent bacteria were aspirated, replaced with fresh RPMI-1640 and biofilms allowed to form over 24 h at 37 °C. Pre-formed biofilms were treated for 24 h with either 5HE-C14-TMA, C14-TOA or C14-TTA or a positive control [ethanol at 40% (v/v)]. Biofilm viability was measured by (i) resazurin-conversion assay (in microtitre wells), or (ii) live/dead imaging (glass-bottom dishes). Conversion of the non-fluorescent redox dye, resazurin into the fluorescent resorufin was performed as described previously.[16] A 44 μM resazurin (Sigma-Aldrich, UK) solution in RPMI-1640 was added to an equal biofilm volume and incubated for 1 h at 37 °C. Fluorescence (excitation 544 nm, emission 590 nm) was quantified using a Perkin Elmer 2030 Multilabel Reader Victor^TM X3. Biofilms were stained with SYTO9 Green (at 13.36 μM) and propidium iodide (at 80 μM) (Molecular Probes®) for 1 h prior to washing. […] Fluorescence intensity was quantified using Image J1 software (http://imagej.net/Welcome).

Series [11] has as its system S. aureus transmembrane potential. In words: Dissipation of bacterial membrane potential, DiSC3(5) fluorescence. The class given is cell-based, Staphylococcus aureus. The settings on record: 30 μM. The protocol:
Transmembrane potential was determined as described by Breeuwer and Abee[23] Staphylococcal cells were resuspended in potassium phosphate buffer (50 mM, pH 7) containing 5 μM of the cationic fluorescent dye DiSC3(5) (Invitrogen) and fluorescence determined (excitation 650 nm, emission 680 nm).

Series [12] has as its system agr quorum sensing system. Details: method as in PMID 24592914. The settings on record: S. aureus; cited from earlier work.
Series [13] relates to S. aureus biofilms. Put plainly: Biofilm susceptibility, resazurin-conversion assay on plasma-coated wells. The class given is cell-based, Staphylococcus aureus. The protocol:
Biofilms were formed as previously described to mimic in vivo conditions that promote formation of coagulase-mediated biofilms.[16] Briefly, microtitre plates or glass-bottom culture dishes (MaTek Co., USA) were coated with either 20% (v/v) or 100% (v/v) human plasma, respectively, and inoculated with S. aureus at an OD600 ∼0.2. After 1 h, non-adherent bacteria were aspirated, replaced with fresh RPMI-1640 and biofilms allowed to form over 24 h at 37 °C. Pre-formed biofilms were treated for 24 h with either 5HE-C14-TMA, C14-TOA or C14-TTA or a positive control [ethanol at 40% (v/v)]. Biofilm viability was measured by (i) resazurin-conversion assay (in microtitre wells), or (ii) live/dead imaging (glass-bottom dishes). Conversion of the non-fluorescent redox dye, resazurin into the fluorescent resorufin was performed as described previously.[16] A 44 μM resazurin (Sigma-Aldrich, UK) solution in RPMI-1640 was added to an equal biofilm volume and incubated for 1 h at 37 °C. Fluorescence (excitation 544 nm, emission 590 nm) was quantified using a Perkin Elmer 2030 Multilabel Reader Victor^TM X3. Biofilms were stained with SYTO9 Green (at 13.36 μM) and propidium iodide (at 80 μM) (Molecular Probes®) for 1 h prior to washing. Four representative images at ×40 and ×100 were obtained per experimental group, per experiment using a Zeiss LSM 510 META confocal microscope. Each experiment was repeated at least three times. Fluorescence intensity was quantified using Image J1 software (http://imagej.net/Welcome).

The nature of series [14]: Iron chelation. The class given is physicochemical. The settings on record: data not shown.

In brackets after ≈: the same amount, converted by molar mass. Several values for one entry are separate records, joined by “and”; a condition that tells them apart may be missing. Equal values may be shown once.

On to `CCCCCCCCCCCCCC(=O)C1=C(O)N[C@@H](CCO)C1=O` [5HE-C14-TMA, 5-hydroxyethyl-3-tetradecanoyltetramic acid], for which the figures for the “Selectivity index (SI, CC50/MIC)” value in [1] and in series [8] were 3.5 and 32, respectively. For the same molecule, the CC50 (as a rule, the concentration that lowers cell viability or growth by half) at 24 h in series [2] was 19 µM and 7 µg/mL; in series [9] it was 181 µM and 64 µg/mL. Besides, the MIC (usually the lowest concentration that inhibits growth of the organism) is 2 mg/L (≈ 5.66 µM) in series [3]; 2 to 4 mg/L (≈ 5.66 to 11.3 µM) in series [3] (Staphylococcus aureus); 6.25 µM and 2 µg/mL in series [4]; 6.25 µM and 2 µg/mL in series [6]; 12.5 µM (≈ 4.42 µg/mL) in series [7] (towards S. aureus). Also, in [5] (USA300, over 30 min), the Reduction of viability worked out at 3 logs. Besides, the “Bactericidal activity (CLSI: at least 3-log reduction)” value in [5] (planktonic USA300) is on record as “bactericidal”. For the same molecule, in [7] (planktonic S. aureus), the “Increase in growth inhibitory activity relative to 5HE-C10-TMA” value is given as 8 fold. This molecule came in with a Biofilm killing in series [10] greater than 50%. Besides, in series [11], the “Membrane depolarization (DiSC3(5) fluorescence)” value was “increase in fluorescence, indicative of membrane depolarization”. For the same molecule, in series [12], the IC50 (usually the midpoint of a concentration-inhibition curve) was 14 µM. Besides, in series [13] (1024 mg/L, 24 h treatment, depending on the strain, resazurin), the “Reduction of biofilm viability” value is given as 7–20 fold. In addition, the “Concentration giving complete killing / eradication of S. aureus biofilms” value in series [13] (MRSA and MSSA biofilms) lay in the range of 512 to 1024 mg/L. In [14], the Iron chelation entry is reported as “is an iron chelator”.
